Source: ChEMBL document CHEMBL1149677, “Synthesis of fluorescent and photoaffinity-labeled derivatives of bisphenol A and their inhibitory activity toward hypoxic expression of erythropoietin” (Bioorg Med Chem Lett, 2007)
Activity calls are given as the source filed them. The rule behind the calls is not given here.

What was measured:
Assay type in all cases: functional, cell-based
Hep 3B2 [1] = experiment: Inhibition of erythropoietin expression in human Hep3B cells at 200 uM
Hep 3B2 [2] = experiment: Inhibition of erythropoietin expression in human Hep3B cells at 300 uM
Hep 3B2 [3] = experiment: Inhibition of erythropoietin expression in human Hep3B cells

CC(C)(c1ccc(OCCCCNc2ccc([N+](=O)[O-])c3nonc23)cc1)c1ccc(OCCCCOc2ccc(C3(C(F)(F)F)N=N3)cc2)cc1
Activity (Hep 3B2 [1]): Active

CC(C)(c1ccc(OCCNc2ccc([N+](=O)[O-])c3nonc23)cc1)c1ccc(OCCOc2ccc(C3(C(F)(F)F)N=N3)cc2)cc1
Activity (Hep 3B2 [2]): Active

COCOc1ccc(C(C)(C)c2ccc(OCCCCOc3ccc(C4(C(F)(F)F)N=N4)cc3)cc2)cc1
Activity (Hep 3B2 [3]): inactive

COCOc1ccc(C(C)(C)c2ccc(OCCCCNc3ccc([N+](=O)[O-])c4nonc34)cc2)cc1
Activity (Hep 3B2 [3]): Active

CC(C)(c1ccc(O)cc1)c1ccc(OCCCCNc2ccc([N+](=O)[O-])c3nonc23)cc1
Activity (Hep 3B2 [3]): Active
